Experimental data as given in EPA's ToxValDB 9.5 (doi:10.2903/j.efsa.2006.72r).
Values after ≈ are worked out from the molar mass of the structure shown.

Tests used:
Oncorhynchus mykiss = conditions: acute; duration: 96 hours; mortality
Landoltia sp. = conditions: acute; duration: 14 days; mortality
Rattus norvegicus = conditions: for LD50: acute, mortality; for NOAEL: histopathology: neoplastic
Oryctolagus sp. = conditions: reproduction developmental; inhalation
Canidae = conditions: short-term; duration: 2 weeks; Dog Other
Daphnia magna = conditions: chronic/long-term; duration: 21 days; mortality
Anas platyrhynchos = conditions: short-term; oral; feed; mortality
Cyprinodon variegatus = conditions: acute; duration: 96 hours; mortality
Mus musculus = conditions: chronic, duration: 2 years
Folsomia candida = conditions: not reported; mortality
Pimephales promelas = conditions: chronic/long-term; duration: 33 days; growth
Colinus virginianus = conditions: acute; oral; diet; mortality

`O=C(O)C=CCl` [3-Chloroacrylic acid] was tested. Which LC50 (Oncorhynchus mykiss) did it give?
The LC50 was 69.5 µg/mL (≈ 653 µM).

And the LC50 (Landoltia sp.)?
Its LC50 is 0.26 µg/mL (≈ 2.44 µM).

What about the LD50 (Rattus norvegicus; oral) of the same compound?
The LD50 was 91 mg/kg.

With `ClC=CCCl` [1,3-Dichloropropene] as the compound, how does the NOAEL (Oryctolagus sp.) read?
Its NOAEL is 0.0908 mg/L.

And the NOAEL (Canidae)?
The NOAEL was 20 mg/kg-day.

What about the NOEC (Daphnia magna) of the same compound?
The NOEC was 0.0701 mg/L.

What about the LC50 (Anas platyrhynchos) of the same compound?
The LC50 was > 1260 mg/kg-day.

And the LC50 (Cyprinodon variegatus)?
The LC50 was 0.87 µg/mL (≈ 7.84 µM).

What about the NOAEL (Mus musculus; inhalation, histopathology: neoplastic) of the same compound?
Its NOAEL is 4.43 mg/kg-day.

What about the NOAEL (Mus musculus; oral, M/F) of the same compound?
The NOAEL was 2.5 mg/kg-day.

And the LC50 (Tagia sp.; acute, duration: 14 days, mortality)?
Its LC50 is 55.6 mg/kg.

And the NOEC (Tagia sp.; chronic/long-term, duration: 56 days, reproduction)?
Its NOEC is 770 mg/kg.

And the LEL (Folsomia candida)?
Its LEL is 329000 g/ha.

And the LD50 (Rattus norvegicus; inhalation)?
Its LD50 is 2.7 mg/L.

What about the LD50 (Rattus norvegicus; oral) of the same compound?
The LD50 was 130 mg/kg.

And the NOAEL (Rattus norvegicus; chronic, duration: 2 years, oral, diet)?
Its NOAEL is 2.5 mg/kg-day.

And the NOAEL (Rattus norvegicus; subchronic, duration: 90 days, inhalation)?
The NOAEL was 9.72 mg/kg-day.

And the NOEC (Pimephales promelas)?
Its NOEC is 0.032 mg/L.

What about the LD50 (Colinus virginianus) of the same compound?
The LD50 was 140 mg/kg.
